From patent publication US20050202463A1, “Modulators of dimethylarginine dimethylaminohydrolase and methods of use thereof” (priority 2003, published 2005)

Legend:
mice = assay: plasma glucose clearance after i.p. insulin (insulin sensitivity); type: in vivo; conditions: wild-type female mice, ADMA 75 mg/kg i.p. after 4 h fasting, insulin injected 2 h later, compared to PBS-treated wild-type mice
Experimental: Experiments were performed to assess insulin sensitivity by measuring plasma glucose clearance rate in these DDAH transgenic mice. After 4 hours of fasting, wildtype female mice were injected intraperitoneally with either ADMA (75 mg/kg), which induces insulin resistance, or phosphate buffered saline (PBS); the same dosage was given to the transgenic mice (n=3 in each group). After two hours, insulin was injected; venous blood glucose was assayed by a glucometer every 5 minutes for an hour. The half-life of glucose disappearance from plasma was calculated using a first-order decay model; plasma ADMA was measured by HPLC.

ADMA levels = conditions: reported in the literature (Stuhlinger et al. 2002; Wheatcroft et al. 2003); cited from earlier work

Structure (SMILES) | plasma glucose response to insulin (mice) | effect on ADMA levels (ADMA levels)
CN(C)C(N)=NCCC[C@H](N)C(=O)O [ADMA, asymmetric dimethylarginine] | delayed and attenuated drop in plasma glucose in response to insulin | 
CN(C)C(=N)N=C(N)N [metformin] |  | decrease circulating ADMA levels
